Columns and labels:
[1] = test system: cAMP-specific phosphodiesterase (PDE IV); experiment: Inhibition of the PDE IV enzyme derived from a dog trachea; assay type: biochemical; settings: test compound 10^−6 M; PDE IV from dog tracheal smooth muscle; substrate cAMP 1 μM
Experimental: cAMP-specific phosphodiesterase (PDE IV) was purified from a dog tracheal smooth muscle according to the method of Torphy et al. [Molecular Pharmacol., 37, 206-214 (1990)]. The PDE activity was measured by the following two steps according to the method of Kincaid and Manganiello et al. [Method in Enzymology (J. D. Corbin and R. A. Jonson, Eds.), 199, 457-470 (1988)]. Using [^3]cAMP (at a final concentration of 1 μM) as a substrate, the reaction was carried out in a standard mixture containing N,N-bis(2-hydroxyethyl)-2-aminoethanesulfonic acid (50 mM, pH=7.2), MgCl2 (1 mM), and soybean trypsin inhibitor (0.1 mg/ml). The reaction was initiated by adding the enzyme, followed by incubation at 30° C. for 10 to 30 minutes. After stopping the reaction with hydrochloric acid, the generated […] was completely converted to adenosine by 5′-nucleotidase.
The resultant was subjected to chromatography on DEAE-Sephadex A-25, and radio activity of the eluted [^3H] adenosine was counted using a scintillation counter. Each of the test drugs was dissolved in DMSO (final concentration 1.7%) and then added to the mixture.

| SMILES | Enzyme Inhibitory Activity (%, 10^−6 M) [1] [%] | melting point |
| --- | --- | --- |
| CCC1(CC)Cc2c(C(=O)Cc3c(Cl)cncc3Cl)ccc(OC)c2O1 [Compound 97, 4-[2-(3,5-Dichloro-4-pyridyl)-1-oxoethyl]-2,2-diethyl-7-methoxy-2,3-dihydrobenzofuran] | 92 | 164 to 166 °C |
| COc1ccc(C=Cc2c(Cl)cncc2Cl)c2c1CC1(CCCC1)O2 [Compound 131, 7-[2-(3,5-Dichloro-4-pyridyl)ethenyl]-4-methoxy-spiro[2,3-dihydrobenzofuran-2,1′-cyclopentane]] | 51 | 99 to 101 °C |
| COc1ccc(C(=O)Nc2c(Cl)cncc2Cl)c2c1OCC2CC(=O)NCc1ccc(Cl)cc1 (racemic) [Compound 30, (±)-3-[(4-Chlorobenzyl)aminocarbonyl]methyl-4-[(3,5-dichloro-4-pyridyl)aminocarbonyl]-7-methoxy-2,3-dihydro-benzofuran] | 85 | 283 to 286 °C |
| COc1ccc(C(=O)Nc2c(Cl)cncc2Cl)c2c1OC(C)(C)C=C2 [Compound 121, 5-(3,5-Dichloro-4-pyridylaminocarbonyl)-8-methoxy-2,2-dimethylbenzopyran] | 85 | 174 to 178 °C |
| COc1ccc(C(=O)Nc2c(Cl)cncc2Cl)c2c1OCC2CC(=O)O (racemic) [Compound 9, (±)-3-Carboxymethyl-4-(3,5-dichloro-4-pyridylaminocarbonyl)-7-methoxy-2,3-dihydrobenzofuran] | 22 | 259 to 263 °C |
| COc1ccc(CCc2c(Cl)cncc2Cl)c2c1OC(C)(C)C2 [Compound 45, 4-[2-(3,5-Dichloro-4-pyridyl)ethyl]-7-methoxy-2,2-dimethyl-2,3-dihydrobenzofuran] | 74 | 128 to 133 °C |
| CCOC(=O)CC1COc2c(OC)ccc(C(=O)Nc3ccccc3)c21 (racemic) [Compound 7, (±)-3-Ethoxycarbonylmethyl-7-methoxy-4-phenylaminocarbonyl-2,3-dihydrobenzofuran] | 37 | 169 to 170 °C |
| COc1ccc(C(=O)Nc2c(Cl)cncc2Cl)c2c1OCC2CC(=O)OCc1ccccc1 (racemic) [Compound 13, (±)-3-Benzyloxycarbonylmethyl-4-[(3,5-Dichloro-4-pyridyl)aminocarbonyl]-7-methoxy-2,3-dihydrobenzofuran] | 94 | 198 to 205 °C |
| COc1ccc(C(=O)Nc2c(Cl)cncc2Cl)c2c(-c3ccccc3)coc12 [Compound 42, 4-[(3,5-Dichloro-4-pyridyl)aminocarbonyl]-7-methoxy-3-phenylbenzofuran] | 73 | 177 to 179 °C |
| COc1ccc(C(=O)Cc2c(Cl)cncc2Cl)c2c1OC1(CCCC1)C2 [Compound 99, 4-[2-(3,5-Dichloro-4-pyridyl)-1-oxoethyl]-7-methoxy-spiro[2,3-dihydrobenzofuran-2,1′-cyclopentane]] | 91 | 159 to 162 °C |
| COc1ccc(C(=O)Nc2c(Cl)cncc2Cl)c2c1OCC2C(C)C (racemic) [Compound 4, (±)-4-[(3,5-Dichloro-4-pyridyl)aminocarbonyl]-7-methoxy-3-(2-propyl)-2,3-dihydrobenzofuran] | 53 | 239 to 241 °C |
| COc1ccc(C(=O)Nc2ccccc2)c2c1OCC2CC(=O)O (racemic) [Compound 11, (±)-3-Carboxymethyl-7-methoxy-4-phenylaminocarbonyl-2,3-dihydrobenzofuran] | 6 | 248 to 251 °C |
| COc1ccc(C(Sc2ccncc2)c2ccccc2)c2c1OCC2C (racemic) [Compound 60A, (±)-7-Methoxy-3-methyl-4-[1-phenyl-1-(4-pyridylthio)-methyl]-2,3-dihydrobenzofuran] | 15 | 59 to 62 °C |
| COc1ccc(C(=O)Nc2ccccc2)c2c1OCC2CC(=O)OCc1ccccc1 (racemic) [Compound 15, (±)-3-Benzyloxycarbonylmethyl-7-methoxy-4-phenylaminocarbonyl-2,3-dihydrobenzofuran] | 75 | 179 to 180 °C |
| COc1ccc(C(=O)Cc2c(Cl)cncc2Cl)c2c1CC1(CCCC1)O2 [Compound 132, 7-[2-(3,5-Dichloro-4-pyridyl)-1-oxoethyl]-4-methoxy-spiro[2,3-dihydrobenzofuran-2,1′-cyclopentane]] | 66 | 70 to 72 °C |
| COc1ccc(C(=O)Nc2c(Cl)cncc2Cl)c2c1OCC2CC(=O)NCc1ccccc1 (racemic) [Compound 25, (±)-3-(Benzylaminocarbonyl)methyl-4-[(3,5-dichloro-4-pyridyl)aminocarbonyl]-7-methoxy-2,3-dihydrobenzofuran] | 84 | 284 to 286 °C |
| COc1ccc(CSc2ccncc2)c2c1OCC2C (racemic) [Compound 59, (±)-7-Methoxy-3-methyl-4-(4-pyridylthiomethyl)-2,3-dihydrobenzofuran] | 24 | 110 to 112 °C |
| COc1ccc(C(Sc2ccncc2)c2ccccc2)c2c1OCC2C (racemic) [Compound 60B, (±)-7-Methoxy-3-methyl-4-[1-phenyl-1-(4-pyridylthio)-methyl]-2,3-dihydrobenzofuran] | 4 | 84 to 85 °C |
| COc1ccc(C(=O)Cc2ccncc2)c2c1OCC2C (racemic) [Compound 104, (±)-7-Methoxy-3-methyl-4-[1-oxo-2-(4-pyridyl)ethyl]-2,3-dihydrobenzofuran] | 48 | 111 to 117 °C |
| COc1ccc(C#Cc2ccncc2)c2c1OC1(CCCC1)C2 [Compound 142, 7-Methoxy-4-[2-(4-pyridyl)ethynyl]-spiro[2,3-dihydrobenzofuran-2,1′-cyclopentane]] | 76 | 128 to 131 °C |
| COc1ccc(C(C#N)Cc2c(Cl)cncc2Cl)c2c1OC(C)(C)C2 (racemic) [Compound 63, (±)-4-[1-Cyano-2-(3,5-dichloro-4-pyridyl)ethyl]-2,2-dimethyl-7-methoxy-2,3-dihydrobenzofuran] | 85 | 158 to 162 °C |
| COc1ccc(C(=O)Nc2c(Cl)cncc2Cl)c2c1OCC2CC(=O)NCc1ccccc1Cl (racemic) [Compound 31, (±)-3-[(2-Chlorobenzyl)aminocarbonyl]methyl-4-[(3,5-dichloro-4-pyridyl)aminocarbonyl]-7-methoxy-2,3-dihydro-benzofuran] | 89 | 288 to 289 °C |
| COc1ccc(C(=O)Nc2c(Cl)cncc2Cl)c2c1OCC2CC(=O)NCc1ccc(F)cc1 (racemic) [Compound 29, (±)-4-[(3,5-Dichloro-4-pyridyl)aminocarbonyl]-3-[(4-fluorobenzyl)aminocarbonyl]methyl-7-methoxy-2,3-dihydro-benzofuran] | 85 | 287 °C |
| CCOC(=O)C(C#N)=Cc1ccc(OC)c2c1CC(C)(C)O2 [Compound 89, 4-(2-Cyano-2-ethoxycarbonylethenyl)-7-methoxy-2,2-dimethyl-2,3-dihydrobenzofuran] | 33 | 112 to 117 °C |
| COc1ccc(C(=O)Nc2c(Cl)cncc2Cl)c2c1OCC2C (racemic) [Compound 2, (±)-4-[(3,5-Dichloro-4-pyridyl)aminocarbonyl]-7-methoxy-3-methyl-2,3-dihydrobenzofuran] | 77 | 198 to 200 °C |
| COc1ccc(C(=O)Nc2c(Cl)cncc2Cl)c2c1OCC2CC(=O)Nc1ccccc1 (racemic) [Compound 27, (±)-4-[(3,5-Dichloro-4-pyridyl)aminocarbonyl]-7-methoxy-3-(phenylaminocarbonyl)methyl-2,3-dihydrobenzofuran] | 75 | 296 to 300 °C (dec.) |
| COc1ccc(C(=O)Nc2c(Cl)cncc2Cl)c2cc(-c3ccccn3)oc12 [Compound 40, 4-[(3,5-Dichloro-4-pyridyl)aminocarbonyl]-7-methoxy-2-(2-pyridyl)benzofuran] | 89 | 263 to 264 °C |
| CCC1(CC)Cc2c(CCc3ccncc3)ccc(OC)c2O1.Cl [Compound 51, 2,2-Diethyl-7-methoxy-4-[2-(4-pyridyl)ethyl]-2,3-dihydrobenzofuran.hydrochloride] | 67 |  |
| COc1ccc(/C=C/c2ccncc2)c2cc(-c3ccccc3)oc12.Cl [Compound 81, (E)-7-Methoxy-2-phenyl-4-[2-(4-pyridyl)ethenyl]-benzofuran.hydrochloride] | 56 |  |
| COc1ccc(C(=O)Nc2c(Cl)cncc2Cl)c2c1OCC2CC(=O)N1CCc2ccccc2C1 (racemic) [Compound 22, (±)-4-[(3,5-Dichloro-4-pyridyl)aminocarbonyl]-7-methoxy-3-[(1,2,3,4-tetrahydroisoquinolinyl)carbonyl]-methyl-2,3-dihydrobenzofuran] | 85 |  |

Source: patent US6716987B1, “Derivatives of benzofuran or benzodioxazole compounds” (Kyowa Hakko Kogyo Co., Ltd., priority 1995, dated 2004)
